According to ChEMBL document CHEMBL1134063, “Identification of a potent and selective oxytocin antagonist, from screening a fully encoded differential release combinatorial chemical library” (Bioorg Med Chem Lett, 2001):

Biological target: T1, Oxytocin receptor (Homo sapiens, UniProt P30559)
T1 sequence (P30559 whole entry): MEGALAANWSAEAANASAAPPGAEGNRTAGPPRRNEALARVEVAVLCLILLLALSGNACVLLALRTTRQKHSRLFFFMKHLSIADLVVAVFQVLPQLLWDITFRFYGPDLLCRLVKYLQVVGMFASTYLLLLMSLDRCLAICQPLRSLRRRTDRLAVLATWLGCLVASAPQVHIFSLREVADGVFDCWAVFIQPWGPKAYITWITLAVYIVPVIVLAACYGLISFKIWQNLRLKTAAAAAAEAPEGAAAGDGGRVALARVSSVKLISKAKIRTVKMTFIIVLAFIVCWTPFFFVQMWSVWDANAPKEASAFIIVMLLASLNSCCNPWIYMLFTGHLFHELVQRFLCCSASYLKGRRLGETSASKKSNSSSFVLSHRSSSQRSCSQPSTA
Assay: Inhibitory concentration required for antagonist activity against oxytocin receptor
Assay type: functional

| Compound | IC50 |
| --- | --- |
| CC(=O)CCCC(=O)NC1N=C(c2ccccc2)c2ccccc2N(CC(=O)N[C@@H](Cc2cccs2)C(N)=O)C1=O (some centres not stated) | 1 nM |
| CC(=O)CCCC(=O)NC1N=C(c2ccccc2)c2ccccc2N(CC(=O)N[C@@H](Cc2ccc(Cl)c(Cl)c2)C(N)=O)C1=O (some centres not stated) | 5 nM |
